Columns and labels:
ALS = ALS treatment with riluzole; cited from earlier work
FALS mice (G93A) = experiment: Treatment of G93A FALS mice with uPA inhibitor WX-C340 (survival analysis, disease progression); type: in vivo; details: 10 mg WX-C340 i.p. daily
Procedure: Kaplan-Meyer-Analysis, G93A-ALS-model: Comparison of the survival of control group animals (N=42) with animals treated with 10 mg/kg WX-C340 i.p. Daily (treatment start day 30, n=18).
FALS mice (G93A) begin to show behavioral symptoms at about 90 days of age while G85R mice develop symptoms at about 8 months of age. The initial symptoms is a high frequency resting tremor. This progresses to gait abnormalities and uncoordinated movements. Later the mice begin to show paralysis of the hind limbs, eventually progressing to paralysis of the forelimbs and finally to complete paralysis. Animals were sacrificed when they were unable to roll over within 10 seconds of being pushed on their side. This time point is taken as the time of death.

SMILES	prolongation of life (ALS)	progression of disease (onset of paralysis of the front legs) (FALS mice (G93A))	survival of the animals (Kaplan-Meyer analysis, FIG. 4) (FALS mice (G93A); treatment start day 30, versus control group)
Nc1nc2ccc(OC(F)(F)F)cc2s1 [riluzole]	ca. 3 months		
Cl.N=C(N)Nc1ccc(CNC(=O)CNC(=O)[C@@H](CO)NS(=O)(=O)Cc2ccc(Cl)cc2)cc1 [WX-C340, 4-chlorobenzyl-sulfonyl-(D)-Ser-Gly-(4-guanidinobenzyl)amide hydrochloride]		delays the progression of disease	significantly improves the survival
